Laboratory results from patent EP3868759A1, “2,3,5-SUBSTITUTED PYRROLO[2,3-B]PYRIDINES AS ERBB MODULATORS USEFUL FOR TREATING CANCER” (PearlRiver Bio GmbH, priority 2020, dated 2021).

What was measured:
HER2 INS YVMA = biological target: T1, HER2 INS YVMA (Homo sapiens, UniProt P04626, INS775YVMA); test: Lance Kinase Activity Assay, Her2 Exon 20 InsYVMA; conditions: biochemical Lance assay
T1 construct: purchased DPF
Protocol: This protocol describes how the Lance Kinase Activity Assay was performed to determine IC50 values of compounds of general formula (I) against HER2 INS YVMA. The principle behind this enzymatic assay is based upon the phosphorylation of the Ulight-peptide substrate. It is detected by using a specific EU-labeled anti-phospho peptide antibody. The binding of the Eu labeled anti-phospho peptide antibody to the phosphorylated ULight labeled peptide gives rise to a FRET-signal. Binding of an inhibitor to the kinase prevents phosphorylation of the Ulight-substrate, resulting in a loss of FRET. In table 2 is summarized the relevant information for the LANCE assay. Table 2: Reagents, stock concentrations and final assay concentrations for Her2 INS YVMA.
The compounds of general formula (I) summarized in Table 3 were serial diluted from a 10 mM DMSO stock solution 1:3 over 8 steps in a total volume of 20 µl. For every sample, 8 µl of kinase-substrate mix was transferred into a suitable assay plate (e.g. Corning #3673). Compound was added via pintool transfer (10nl/well) using a Biomek FX robot (BeckmanCoulter). Reaction was started by addition of 2µl ATP working solution and mixed using variomag teleshaker (Thermo Fischer Scientific). After 1 h incubation at room temperature the reaction was stopped with 10µl detection mix containing the Eu-labeled phosphospecific antibody and 10mM EDTA. After a second incubation period of 1 h at room temperature the FRET signal was measured at 340 nm excitation, 665 nm and 615 nm emission (for the ULight-substrate and Eu-AB, respectively) with an Envision spectrophotometer (Perkin Elmer, Waltham, MA, USA) with 50 µs delay and 300 µs integration time. IC50 values were determined from the sigmoidal dose response curves with the software Quattro Workflow (Quattro GmbH, Munich, Germany).

[1] = system: EGFR Exon 20 InsNPH Ba/F3; test: CellTiter-Glo cell viability, EGFR Exon 20 InsNPH Ba/F3; format: cell-based; conditions: Mus musculus, BaF3, 72 h, read-out: EGFR Exon 20 InsNPH Ba/F3 CTG IC50
Protocol: (§1) The CellTiter-Glo Luminescent Cell Viability Assay (Promega) is a homogeneous method of determining the number of viable cells in culture. It is based on quantification of ATP, indicating the presence of metabolically active cells. Cells are seeded on day 1 at cell numbers that assure assay linearity and optimal signal intensity. After incubation for 24h in humidified chambers at 37°C and 5% CO2, compounds in DMSO are added at different concentrations. Cells are further incubated for 72 h at 37°C and 5% CO2. Cells treated with the compound vehicle DMSO are used as positive controls and cells treated with 10 µM Staurosporine serve as negative controls. At day 5 the CellTiter Glo Reagent is prepared according to the instructions of the kit (Promega Inc.): Reagent is mixed 1:1 with cell culture medium. Thereon, mixture and assay plates are equilibrated at room temperature for 20 min. Equal volumes of the reagent-medium-mixture is added to the volume of culture medium present in each well. The plates are mixed at ∼200 rpm for 2 minutes on an orbital shaker. The microplates are then incubated at room temperature for 10 minutes for stabilization of the luminescent signal. Following incubation the luminescence is recorded on a Victor microplate reader (Perkin Elmer) using a 200 ms integration time. The data is then analyzed with Excel using the XLFIT Plugin (dose response Fit 205) for IC50-determination. As quality control the Z'-factor is calculated from 16 positive and negative control values. Only assay results showing a Z'-factor ≥ 0.5 are used for further analysis.

[2] = system: Her2 Exon 20 InsYVMA Ba/F3; test: CellTiter-Glo cell viability, Her2 Exon 20 InsYVMA Ba/F3; format: cell-based; conditions: Mus musculus, BaF3, 72 h, read-out: Her2 Exon 20 InsYVMA Ba/F3 CTG IC50
Protocol: as §1

Cuto-17 = test: CellTiter-Glo cell viability, Cuto-17; format: cell-based; conditions: CUTO17, 72 h, read-out: Cuto-17 CTG IC50
Protocol: as §1

EGFR T790M L858R = EGFR T790M L858R (Homo sapiens, UniProt P00533, L858R/T790M); test: Lance assay, EGFR T790M L858R; conditions: biochemical Lance assay
Chain of EGFR T790M L858R (P00533 25-1210 T790M/L858R): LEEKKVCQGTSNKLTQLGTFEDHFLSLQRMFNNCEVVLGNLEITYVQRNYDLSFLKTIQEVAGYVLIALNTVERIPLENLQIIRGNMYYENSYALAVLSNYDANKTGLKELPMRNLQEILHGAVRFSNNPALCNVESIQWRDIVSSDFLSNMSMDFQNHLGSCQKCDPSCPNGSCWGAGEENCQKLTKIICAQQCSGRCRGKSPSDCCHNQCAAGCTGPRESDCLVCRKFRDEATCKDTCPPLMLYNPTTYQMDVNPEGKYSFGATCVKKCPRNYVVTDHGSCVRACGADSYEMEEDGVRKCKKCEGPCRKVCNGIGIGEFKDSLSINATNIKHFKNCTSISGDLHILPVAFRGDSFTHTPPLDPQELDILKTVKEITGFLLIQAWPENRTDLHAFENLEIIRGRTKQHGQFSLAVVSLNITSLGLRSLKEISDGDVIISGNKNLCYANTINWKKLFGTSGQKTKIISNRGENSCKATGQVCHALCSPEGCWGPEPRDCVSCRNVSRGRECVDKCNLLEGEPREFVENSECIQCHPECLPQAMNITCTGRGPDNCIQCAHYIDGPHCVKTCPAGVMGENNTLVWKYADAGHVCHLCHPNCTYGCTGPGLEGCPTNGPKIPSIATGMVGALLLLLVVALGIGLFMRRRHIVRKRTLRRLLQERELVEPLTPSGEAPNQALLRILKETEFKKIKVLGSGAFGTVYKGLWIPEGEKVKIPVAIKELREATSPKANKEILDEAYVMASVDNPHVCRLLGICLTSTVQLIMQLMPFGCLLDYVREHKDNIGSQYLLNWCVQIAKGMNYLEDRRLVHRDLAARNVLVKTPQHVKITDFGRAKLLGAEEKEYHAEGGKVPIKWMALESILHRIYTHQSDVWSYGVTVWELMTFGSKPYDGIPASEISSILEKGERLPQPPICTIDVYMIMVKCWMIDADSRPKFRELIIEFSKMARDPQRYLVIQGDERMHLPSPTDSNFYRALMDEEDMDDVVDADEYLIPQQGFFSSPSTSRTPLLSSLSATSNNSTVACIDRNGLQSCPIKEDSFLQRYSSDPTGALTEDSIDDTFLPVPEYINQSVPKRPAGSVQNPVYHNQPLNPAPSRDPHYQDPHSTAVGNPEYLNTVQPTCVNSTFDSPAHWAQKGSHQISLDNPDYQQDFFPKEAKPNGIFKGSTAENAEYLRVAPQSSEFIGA

EGFR wt = EGFR wt (Homo sapiens, UniProt P00533); test: Lance assay, EGFR wt; conditions: biochemical Lance assay
Chain of EGFR wt (P00533 25-1210): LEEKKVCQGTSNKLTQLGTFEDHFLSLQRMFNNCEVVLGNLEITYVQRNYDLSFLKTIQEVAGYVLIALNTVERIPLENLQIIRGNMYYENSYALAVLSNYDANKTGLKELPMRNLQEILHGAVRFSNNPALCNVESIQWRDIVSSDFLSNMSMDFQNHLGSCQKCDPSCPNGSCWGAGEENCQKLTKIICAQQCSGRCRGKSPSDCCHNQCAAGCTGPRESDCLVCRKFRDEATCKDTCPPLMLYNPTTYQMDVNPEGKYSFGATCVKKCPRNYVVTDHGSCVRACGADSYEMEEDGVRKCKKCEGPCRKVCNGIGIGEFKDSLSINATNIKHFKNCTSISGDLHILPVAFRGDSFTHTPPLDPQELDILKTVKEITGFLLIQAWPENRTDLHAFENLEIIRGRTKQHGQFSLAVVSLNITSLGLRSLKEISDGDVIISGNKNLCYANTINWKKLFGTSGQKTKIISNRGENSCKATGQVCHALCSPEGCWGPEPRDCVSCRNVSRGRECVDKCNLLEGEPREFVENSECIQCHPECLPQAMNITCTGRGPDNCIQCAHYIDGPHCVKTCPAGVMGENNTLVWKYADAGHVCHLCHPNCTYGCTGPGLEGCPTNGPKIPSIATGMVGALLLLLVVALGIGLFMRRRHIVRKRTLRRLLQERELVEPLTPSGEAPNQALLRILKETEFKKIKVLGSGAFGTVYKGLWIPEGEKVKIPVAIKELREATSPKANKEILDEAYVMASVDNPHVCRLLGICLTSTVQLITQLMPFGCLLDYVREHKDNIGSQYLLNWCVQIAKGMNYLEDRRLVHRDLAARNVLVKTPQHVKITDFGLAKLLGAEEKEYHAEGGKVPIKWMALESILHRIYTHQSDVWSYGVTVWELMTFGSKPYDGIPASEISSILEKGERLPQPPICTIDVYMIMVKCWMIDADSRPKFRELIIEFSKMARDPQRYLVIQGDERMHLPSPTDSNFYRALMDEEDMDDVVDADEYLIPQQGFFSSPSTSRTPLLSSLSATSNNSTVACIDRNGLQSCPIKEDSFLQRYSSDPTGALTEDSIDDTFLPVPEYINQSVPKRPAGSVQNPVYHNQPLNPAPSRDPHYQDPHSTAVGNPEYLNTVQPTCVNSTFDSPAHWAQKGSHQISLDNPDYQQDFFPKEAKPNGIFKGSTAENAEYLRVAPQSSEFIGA

H1975 = test: CellTiter-Glo cell viability, H1975; format: cell-based; conditions: Homo sapiens, NCI-H1975, 72 h, read-out: H1975 CTG IC50
Protocol: as §1

A431 = test: CellTiter-Glo cell viability, A431; format: cell-based; conditions: Homo sapiens, A-431, 72 h, read-out: A431 CTG IC50
Protocol: as §1

EGFR vIII Ba/F3 = test: CellTiter-Glo cell viability, EGFR vIII Ba/F3; format: cell-based; conditions: Mus musculus, BaF3, 72 h, read-out: EGFR vIII Ba/F3 CTG IC50 /
Protocol: as §1

T1 sequence (P04626 with tags, fused parts or gaps INS775YVMA): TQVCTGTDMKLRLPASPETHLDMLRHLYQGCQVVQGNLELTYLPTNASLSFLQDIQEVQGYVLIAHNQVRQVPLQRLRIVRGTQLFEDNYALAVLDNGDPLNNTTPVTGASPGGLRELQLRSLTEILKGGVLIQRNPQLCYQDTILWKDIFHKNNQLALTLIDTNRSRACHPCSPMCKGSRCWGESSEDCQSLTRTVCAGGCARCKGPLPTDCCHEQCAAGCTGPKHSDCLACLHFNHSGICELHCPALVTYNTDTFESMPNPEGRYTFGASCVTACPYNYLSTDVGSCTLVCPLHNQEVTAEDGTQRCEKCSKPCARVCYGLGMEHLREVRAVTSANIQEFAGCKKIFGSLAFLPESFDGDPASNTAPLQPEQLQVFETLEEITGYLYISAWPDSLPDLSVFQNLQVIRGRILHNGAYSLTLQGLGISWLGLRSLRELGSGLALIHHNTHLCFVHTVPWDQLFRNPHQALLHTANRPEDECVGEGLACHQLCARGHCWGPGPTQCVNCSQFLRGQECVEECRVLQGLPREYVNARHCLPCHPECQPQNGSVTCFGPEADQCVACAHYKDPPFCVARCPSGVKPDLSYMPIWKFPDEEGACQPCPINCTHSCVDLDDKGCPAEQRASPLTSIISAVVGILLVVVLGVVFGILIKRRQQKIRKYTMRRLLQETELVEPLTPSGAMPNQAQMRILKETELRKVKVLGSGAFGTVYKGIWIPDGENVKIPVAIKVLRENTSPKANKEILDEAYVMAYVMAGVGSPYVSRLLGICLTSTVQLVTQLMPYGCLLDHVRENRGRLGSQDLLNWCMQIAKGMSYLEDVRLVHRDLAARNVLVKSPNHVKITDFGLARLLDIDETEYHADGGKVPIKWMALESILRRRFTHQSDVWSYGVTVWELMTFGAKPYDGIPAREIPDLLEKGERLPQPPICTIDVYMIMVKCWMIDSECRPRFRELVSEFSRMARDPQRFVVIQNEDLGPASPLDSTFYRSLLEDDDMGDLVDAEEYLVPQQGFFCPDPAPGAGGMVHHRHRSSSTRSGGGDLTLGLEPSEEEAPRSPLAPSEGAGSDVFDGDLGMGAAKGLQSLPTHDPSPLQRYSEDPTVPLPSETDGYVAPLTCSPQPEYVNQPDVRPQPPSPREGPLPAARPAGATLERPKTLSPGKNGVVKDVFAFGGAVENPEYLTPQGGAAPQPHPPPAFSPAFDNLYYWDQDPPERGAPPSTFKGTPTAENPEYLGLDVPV

| Structure (SMILES) | IC50 (HER2 INS YVMA) | IC50 [1] | IC50 [2] | IC50 (EGFR T790M L858R) | IC50 (EGFR wt) | IC50 (H1975) | IC50 (A431) | IC50 (EGFR vIII Ba/F3) | IC50 (Cuto-17) |
| --- | --- | --- | --- | --- | --- | --- | --- | --- | --- |
| C=CC(=O)Nc1cc(-c2c(-c3cnn(CC)c3)[nH]c3ncc(C(=O)OC(C)C)c(C)c23)ccc1C [Example 8, isopropyl 3-(3-acrylamido-4-methylphenyl)-2-(1-ethyl-1 H-pyrazol-4-yl)-4-methyl-1 H-pyrrolo[2,3-b]pyridine-5-carboxylate] | ≤ 0.05 µM | ≤ 0.05 µM | 0.1 to 0.5 µM | ≤ 0.05 µM | ≤ 0.05 µM | 0.1 to 0.5 µM | 1 to 10 µM | 0.1 to 0.5 µM | 0.1 to 0.5 µM |
| C=CC(=O)Nc1cc(-c2c(-c3cnn(Cc4ccccc4)c3)[nH]c3ncc(C(=O)OC(C)C)c(C)c23)ccc1C [Example 9, isopropyl 3-(3-acrylamido-4-methylphenyl)-2-(1-benzyl-1 H-pyrazol-4-yl)-4-methyl-1 H-pyrrolo[2,3-b]pyridine-5-carboxylate] | 0.5 to 1 µM | 0.1 to 0.5 µM | 0.5 to 1 µM | 0.1 to 0.5 µM | ≤ 0.05 µM | 0.5 to 1 µM | 1 to 10 µM | 0.1 to 0.5 µM | 0.5 to 1 µM |
| C=CC(=O)Nc1cc(-c2c(-c3cnn(C4CC4)c3)[nH]c3ncc(C(=O)OC(C)C)c(C)c23)ccc1C [Example 10, isopropyl 3-(3-acrylamido-4-methylphenyl)-2-(1-cyclopropyl-1 H-pyrazol-4-yl)-4-methyl-1 H-pyrrolo[2,3-b]pyridine-5-carboxylate] | 0.05 to 0.1 µM | 0.05 to 0.1 µM | 0.1 to 0.5 µM | 0.05 to 0.1 µM | ≤ 0.05 µM | 0.5 to 1 µM | 1 to 10 µM | 0.1 to 0.5 µM | 0.1 to 0.5 µM |
| C=CC(=O)Nc1cc(-c2c(-c3cnn(CCOC)c3)[nH]c3ncc(C(=O)OC(C)C)c(C)c23)ccc1C [Example 11, isopropyl 3-(3-acrylamido-4-methylphenyl)-2-(1-(2-methoxyethyl)-1 H-pyrazol-4-yl)-4-methyl-1 H-pyrrolo[2,3-b]pyridine-5-carboxylate] | ≤ 0.05 µM | 0.1 to 0.5 µM | 0.1 to 0.5 µM | ≤ 0.05 µM | ≤ 0.05 µM | 0.5 to 1 µM | 1 to 10 µM | 0.1 to 0.5 µM | 0.1 to 0.5 µM |

Further lines, with some results ahead:

| IC50 (HER2 INS YVMA) | IC50 [1] | IC50 [2] | IC50 (EGFR T790M L858R) | IC50 (EGFR wt) | IC50 (H1975) | IC50 (A431) | IC50 (EGFR vIII Ba/F3) | Structure (SMILES) | IC50 (Cuto-17) |
| --- | --- | --- | --- | --- | --- | --- | --- | --- | --- |
| ≤ 0.05 µM | 0.1 to 0.5 µM | 0.1 to 0.5 µM | ≤ 0.05 µM | ≤ 0.05 µM | 0.1 to 0.5 µM | 1 to 10 µM | ≤ 0.05 µM | C=CC(=O)Nc1cc(-c2c(-c3cnn(C)c3)[nH]c3ncc(C(=O)OC(C)C)cc23)cc(F)c1C [Example 2, Isopropyl 3-(3-acrylamido-5-fluoro-4-methylphenyl)-2-(1-methyl-1H-pyrazol-4-yl)-1H-pyrrolo[2,3-b]pyridine-5-carboxylate 2,2,2-trifluoroacetate] | 0.1 to 0.5 µM |
| ≤ 0.05 µM | 0.05 to 0.1 µM | 0.1 to 0.5 µM | ≤ 0.05 µM | ≤ 0.05 µM | 0.1 to 0.5 µM | 1 to 10 µM | ≤ 0.05 µM | C=CC(=O)Nc1cc(-c2c(-c3cnn(C)c3)[nH]c3ncc(OCC)cc23)cc(F)c1C [Example 3, N-(5-(5-ethoxy-2-(1-methyl-1H-pyrazol-4-yl)-1H-pyrrolo[2,3-b]pyridin-3-yl)-3-fluoro-2-methylphenyl)acrylamide 2,2,2-trifluoroacetate] | ≤ 0.05 µM |
| ≤ 0.05 µM | 0.1 to 0.5 µM | 0.1 to 0.5 µM | ≤ 0.05 µM | ≤ 0.05 µM | 0.5 to 1 µM | 1 to 10 µM | 0.1 to 0.5 µM | C=CC(=O)Nc1cc(-c2c(-c3cnn(CC)c3)[nH]c3ncc(C(=O)OC(C)C)cc23)ccc1C [Example 6, isopropyl 3-(3-acrylamido-4-methylphenyl)-2-(1-ethyl-1H-pyrazol-4-yl)-1H-pyrrolo[2,3-b]pyridine-5-carboxylate] | 0.5 to 1 µM |
